Data reported in patent US20240124442A1, “TRICYCLIC-AMIDO-BICYCLIC PRMT5 INHIBITORS” (AMGEN INC., priority 2021, published 2024).

Legend:
HCT116 WT cells = experiment: HCT116 WT (parent) cell line proliferation / cell viability (CellTiter-Glo, 6 days); format: cell-based; conditions: Homo sapiens, HCT-116, 144 h, 6 days treatment
Protocol: (§1) HCT116 Proliferation Activity
(§2) To assess selective anti-proliferative activity of compounds of the invention in cells that have loss expression of MTAP, an HCT-116 isogenic cell line pair was utilized where one cell line was engineered to genetically knockout both MTAP alleles. Cell viability was then assessed in both the parent HCT-116 cell line and the MTAP null cell line after 6 days of treatment with compounds of the present invention. Selective anti-proliferative activity in the MTAP null cell line indicates MTA-cooperative inhibition of PRMT5 and ability to inhibit growth of cancer cells that have loss of MTAP.
(§3) HCT116 MTAP null and WT cells were seeded in 96-well tissue culture plates in RPMI 1640 media+10% fetal bovine serum. Plates were incubated overnight at 37° C. and 5% CO2. Cells were then treated with an 8- or 9-point serial dilution of compound, using a top concentration of 1, or 10 μM, 1:3 serial dilution steps and, a DMSO-only control. Cells were incubated in the presence of drug for 6 days. Effects on cell viability were measured with the CellTiter-Glo® Luminescent Cell Viability Assay (Promega) per manufacturer's recommendation. Assay plates were read on an EnVision™ Multilabel Reader using the Ultra-Sensitive luminescence module. IC50 values were calculated with GraphPad Prism v 5.01 using symmetrical sigmoidal dose-response least squares fit with Hill slope fixed to −1 and top constrain to 100% or GeneData Screener using a 4-parameter logistic model to fit dose response curves.
(§4) Alternatively, compounds could be assayed with a 384 well plate format:
(§5) Compounds were pre-spotted into 384 well plates with a 22-point serial dilution of compound, using a top concentration of 10 or 50 μM, 1:2 serial dilution steps and, a DMSO-only control. HCT116 MTAP null and WT cells were then seeded as above and after 6 days effects on cell viability were measured with the CellTiter-Glo® Luminescent Cell Viability Assay (Promega). Assay plates were read as above and IC50 values were calculated with GeneData Screener using a 4-parameter logistic model to fit dose response curves. The reported IC50 represents the value where the curve transits 50% of control.

HCT116 MTAP null cells = experiment: HCT116 MTAP null cell line proliferation / cell viability (CellTiter-Glo, 6 days); format: cell-based; conditions: 144 h; HCT116 MTAP null cells, 6 days treatment, CellTiter-Glo cell viability; read-out: HCT-116 MTAP null IC50
Protocol: as §1, §2, §3, §4, §5

Structure (SMILES) | IC50 (HCT116 WT cells) | IC50 (HCT116 MTAP null cells)
CN(C(=O)c1cc2c(cc1F)nc(N)c1cnn(C)c12)C1COc2cc(C(F)(F)F)cc(F)c21 (racemic) [Example 245, 4-amino-7-fluoro-N-((3R)-4-fluoro-6-(trifluoromethyl)-2,3-dihydro-1-benzofuran-3-yl)-N,1-dimethyl-1H-pyrazolo-[4,3-c]quinoline-8-carboxamide and 4-amino-7-fluoro-N-((3S)-4-fluoro-6-(trifluoromethyl)-2,3-dihydro-1-benzofuran-3-yl)-N,1-dimethyl-1H-pyrazolo[4,3-c]quinoline-8-carboxamide] | 0.88 µM | 19 nM
CN(C(=O)c1cc2c(cc1F)nc(N)c1cnn(C)c12)C1c2ccc(C(F)(F)F)nc2CC1(F)F (racemic) [Example 246, 4-amino-N-((5R)-6,6-difluoro-2-(trifluoromethyl)-6,7-dihydro-5H-cyclopenta[b]-pyridin-5-yl)-7-fluoro-N,1-dimethyl-1H-pyrazolo[4,3-c]-quinoline-8-carboxamide and 4-amino-N-((5S)-6,6-difluoro-2-(trifluoromethyl)-6,7-dihydro-5H-cyclopenta[b]pyridin-5-yl)-7-fluoro-N,1-dimethyl-1H-pyrazolo[4,3-c]quinoline-8-carboxamide] | 8.48 µM | 610 nM
CN(C(=O)c1cc2c(cc1Cl)nc(N)c1cnn(C)c12)C1CCc2nc(C(F)(F)F)ccc21 (racemic) [Example 248, 4-amino-7-chloro-N,1-dimethyl-N-((5R)-2-(trifluoromethyl)-6,7-dihydro-5H-cyclopenta[b]-pyridin-5-yl)-1H-pyrazolo[4,3-c]quinoline-8-carboxamide and 4-amino-7-chloro-N,1-dimethyl-N-((5S)-2-(trifluoromethyl)-6,7-dihydro-5H-cyclopenta[b]-pyridin-5-yl)-1H-pyrazolo[4,3-c]quinoline-8-carboxamide] | 0.635 µM | 18 nM
CN(C(=O)c1cc2c3c(c(N)nc2cc1F)COC3)C1CCOc2cc(C(F)(F)F)ccc21 (racemic) [Example 272, 4-amino-7-fluoro-N-methyl-N-((4R)-7-(trifluoromethyl)-3,4-dihydro-2H-chromen-4-yl)-1,3-dihydrofuro[3,4-c]quinoline-8-carboxamide and 4-amino-7-fluoro-N-methyl-N-((4S)-7-(trifluoromethyl)-3,4-dihydro-2H-chromen-4-yl)-1,3-dihydrofuro[3,4-c]quinoline-8-carboxamide] | 5.39 µM | 206 nM
CN(C(=O)c1cc2c(cc1F)nc(N)c1cnn(C)c12)C1CCOc2cc(C(F)(F)F)ccc21 (racemic) [Example 290, 4-amino-7-fluoro-N,1-dimethyl-N-((4R)-7-(trifluoromethyl)-3,4-dihydro-2H-chromen-4-yl)-1H-pyrazolo[4,3-c]quinoline-8-carboxamide and 4-amino-7-fluoro-N,1-dimethyl-N-((4S)-7-(trifluoromethyl)-3,4-dihydro-2H-chromen-4-yl)-1H-pyrazolo[4,3-c]quinoline-8-carboxamide] | 2.46 µM | 61 nM
CN(C(=O)c1ccc2nc(N)c3c(c2c1)COC3)C1CCc2nc(C(F)(F)F)ccc21 (racemic) [Example 444, 4-amino-N-methyl-N-((5R)-2-(trifluoromethyl)-6,7-dihydro-5H-cyclopenta[b]pyridin-5-yl)-1,3-dihydrofuro[3,4-c]quinoline-8-carboxamide and 4-amino-N-methyl-N-((5S)-2-(trifluoromethyl)-6,7-dihydro-5H-cyclopenta[b]pyridin-5-yl)-1,3-dihydrofuro[3,4-c]quinoline-8-carboxamide] | 12.1 µM | 348 nM
Nc1nc2ccc(C(=O)N(C3CC3)C3COc4cc(C(F)(F)F)ccc43)cc2c2c1COC2 (racemic) [Example 449, 4-amino-N-cyclopropyl-N-((3R)-6-(trifluoromethyl)-2,3-dihydro-1-benzofuran-3-yl)-1,3-dihydrofuro[3,4-c]quinoline-8-carboxamide and 4-amino-N-cyclopropyl-N-((3S)-6-(trifluoromethyl)-2,3-dihydro-1-benzofuran-3-yl)-1,3-dihydrofuro[3,4-c]quinoline-8-carboxamide] | 3.35 µM | 96 nM
CN(C(=O)c1cc2c3c(c(N)nc2cc1F)COC3)C1COc2cc(OC(F)F)ccc21 (racemic) [Example 459, 4-amino-N-((3R)-6-(difluoromethoxy)-2,3-dihydro-1-benzofuran-3-yl)-7-fluoro-N-methyl-1,3-dihydrofuro[3,4-c]quinoline-8-carboxamide and 4-amino-N-((3S)-6-(difluoromethoxy)-2,3-dihydro-1-benzofuran-3-yl)-7-fluoro-N-methyl-1,3-dihydrofuro[3,4-c]quinoline-8-carboxamide] | 5.54 µM | 91 nM

Results, then the compound that gave them:

IC50 (HCT116 WT cells) | IC50 (HCT116 MTAP null cells) | Structure (SMILES)
12.6 µM | 316 nM | CN(C(=O)c1ccc2nc(N)c3c(c2c1)COC3)C1COc2cc(C(F)(F)F)ncc21 (racemic) [Example 445, 4-amino-N-methyl-N-((3R)-6-(trifluoromethyl)-2,3-dihydrofuro[3,2-c]pyridin-3-yl)-1,3-dihydrofuro[3,4-c]quinoline-8-carboxamide and 4-amino-N-methyl-N-((3S)-6-(trifluoromethyl)-2,3-dihydrofuro[3,2-c]pyridin-3-yl)-1,3-dihydrofuro[3,4-c]quinoline-8-carboxamide]
37.8 µM | 2070 nM | CN(C(=O)c1ccc2nc(N)c3c(c2c1)COC3)C1COc2cc(Br)cnc21 (racemic) [Example 450, 4-amino-N-((3R)-6-bromo-2,3-dihydrofuro[3,2-b]pyridin-3-yl)-N-methyl-1,3-dihydrofuro[3,4-c]quinoline-8-carboxamide and 4-amino-N-((3S)-6-bromo-2,3-dihydrofuro[3,2-b]pyridin-3-yl)-N-methyl-1,3-dihydrofuro[3,4-c]quinoline-8-carboxamide]
13.3 µM | 246 nM | CN(C(=O)c1cc2c3c(c(N)nc2cn1)COC3)C1COc2cc(OC(F)F)ccc21 (racemic) [Example 453, 4-amino-N-((3R)-6-(difluoromethoxy)-2,3-dihydro-1-benzofuran-3-yl)-N-methyl-1,3-dihydrofuro[3,4-c][1,7]naphthyridine-8-carboxamide and 4-amino-N-((3S)-6-(difluoromethoxy)-2,3-dihydro-1-benzofuran-3-yl)-N-methyl-1,3-dihydrofuro[3,4-c][1,7]naphthyridine-8-carboxamide]
50 µM | 3560 nM | CN(C(=O)c1cc2c3c(c(N)nc2cn1)COC3)C1COc2cc(C(F)(F)F)ncc21 (racemic) [Example 454, 4-amino-N-methyl-N-((3R)-6-(trifluoromethyl)-2,3-dihydrofuro[3,2-c]pyridin-3-yl)-1,3-dihydrofuro[3,4-c][1,7]naphthyridine-8-carboxamide and 4-amino-N-methyl-N-((3S)-6-(trifluoromethyl)-2,3-dihydrofuro[3,2-c]pyridin-3-yl)-1,3-dihydrofuro[3,4-c][1,7]naphthyridine-8-carboxamide]
5.62 µM | 122 nM | CN(C(=O)c1cc2c3c(c(N)nc2cn1)COC3)C1COc2cc(C(F)(F)F)cc(F)c21 (racemic) [Example 455, 4-amino-N-((3R)-4-fluoro-6-(trifluoromethyl)-2,3-dihydro-1-benzofuran-3-yl)-N-methyl-1,3-dihydrofuro[3,4-c][1,7]naphthyridine-8-carboxamide and 4-amino-N-((3S)-4-fluoro-6-(trifluoromethyl)-2,3-dihydro-1-benzofuran-3-yl)-N-methyl-1,3-dihydrofuro[3,4-c][1,7]naphthyridine-8-carboxamide]
38.5 µM | 5050 nM | CN(C(=O)c1cc2c3c(c(N)nc2cn1)COC3)C1COc2cc(Br)cnc21 (racemic) [Example 458, 4-amino-N-((3R)-6-bromo-2,3-dihydrofuro[3,2-b]pyridin-3-yl)-N-methyl-1,3-dihydrofuro[3,4-c][1,7]naphthyridine-8-carboxamide and 4-amino-N-((3S)-6-bromo-2,3-dihydrofuro[3,2-b]pyridin-3-yl)-N-methyl-1,3-dihydrofuro[3,4-c][1,7]naphthyridine-8-carboxamide]
10.8 µM | 162 nM | CN(C(=O)c1cc2c3c(c(N)nc2cc1F)COC3)C1COc2cc(C(F)(F)F)ncc21 (racemic) [Example 460, 4-amino-7-fluoro-N-methyl-N-((3R)-6-(trifluoromethyl)-2,3-dihydrofuro[3,2-c]pyridin-3-yl)-1,3-dihydrofuro[3,4-c]quinoline-8-carboxamide and 4-amino-7-fluoro-N-methyl-N-((3S)-6-(trifluoromethyl)-2,3-dihydrofuro[3,2-c]pyridin-3-yl)-1,3-dihydrofuro[3,4-c]quinoline-8-carboxamide]
